“Also recorded” adds a separate entry of the source.
How the values were obtained:
[1] = tested on: optimal tandem BRCT domain-interacting phosphopeptide, YDIpSQVFPF, or its non-phosphorylated counterpart; assay: Peptide binding: in vitro translated [35S] BRCA1 BRCT constructs on bead-immobilized phosphorylated or non-phosphorylated peptide; conditions: in vitro transcribed and translated protein; for binding to non-phosphorylated peptide: bead-immobilized biotinylated non-phosphorylated peptide; for binding to phosphorylated peptide: bead-immobilized biotinylated phosphopeptide, SDS-PAGE and autoradiography
Method: An optimal phosphopeptide for binding the BRCA1 BRCTs was determined by oriented peptide library screening as described previously. This peptide was synthesized in both its phosphorylated and non-phosphorylated form with a biotin group at the N-terminus using N-α-FMOC-protected amino acids and standard BOP/HOBt coupling chemistry. These peptides were conjugated to streptavidin coated beads (Sigma-Aldrich). The wild-type and mutant BRCA1 BRCT domain-containing constructs (residues 1313-1863) were transcribed and translated in vitro in the presence of [^35S]-methionine using the TNT kit (Promega). The bead-immobilized peptides (10 μL of beads) were added to 10 μL of the in vitro translated [^35S]-labeled protein pool in 150 μL binding buffer (50 mM Tris-HCl (pH7.6), 150 mM NaCl, 0.5% NP-40, 1 mM EDTA, 2 mM DTT, 8 μg/mL pepstatin, 8 μg mL^−1 aprotinin, 8 μg mL^−1 leupeptin, 800 μM Na3VO4, 25 mM NaF). After incubation at 4° C. for 3 hours, the beads were washed three times with 200 μL of binding buffer prior to analysis by SDS-PAGE (12.5% (w/v)) and autoradiography.

U2OS cells = assay: Immunofluorescence: localization and nuclear foci formation of myc-tagged BRCA1 tandem BRCT domains; type: cell-based; conditions: for co-localization with anti-pSer/pThr-Gln epitope antibody staining / nuclear foci formation after DNA damage: U2OS cells, 10 Gy γ-irradiation; for co-localization with anti-pSer/pThr-Gln epitope antibody staining: 2 hrs; for nuclear foci formation after DNA damage: 2 hrs later permeabilized, fixed and stained
Method: U2OS cells were seeded onto 18 mm^2 coverslips and transfected with the BRCA1 BRCT construct (residues 1313-1863) and various mutants using FuGene6 transfection reagent (Roche) according to manufacturer's protocol. Thirty hours following transfection, the cells were either treated with 10 Gy of ionizing radiation or mock irradiated and allowed to recover for 120 minutes. Cells were fixed in 3% (v/v) paraformaldehyde/2% (w/v) sucrose for 15 min at RT and permeabilized with a 0.5% (v/v) Triton X-100 solution containing 20 mM Tris-HCl (pH 7.8), 75 mM NaCl, 300 mM sucrose, and 3 mM MgCl2 for 15 min at RT. When necessary, proteins were extracted after IR treatment as described previously. In brief, cells were incubated with extraction buffer (10 mM PIPES pH6.8, 100 mM NaCl, 300 mM sucrose, 3 mM MgCl2, 1 mM EGTA, 0.5% (v/v) Triton X-100) for 5 minutes on ice followed by incubation with extraction stripping buffer (10 mM Tris-HCl pH 7.4, 10 mM NaCl, 3 mM MgCl2, 0.5% (v/v) Triton X-100) for 5 minutes on ice followed by successive washes in ice cold PBS. Slides were fixed as above, stained with primary antibodies at 37° C. for 20 min, then stained with a anti-mouse or anti-rabbit secondary antibody for 20 min (Molecular Probes) at 37° C. Primary antibodies used were mouse anti-myc (Cell Signaling) and rabbit anti-(pSer/pThr)Gln (Cell Signaling). Images were collected on a Axioplan2 microscope (Carl Zeiss) and processed using OpenLab software (Improvision).

endogenous BACH1 = target: T1, endogenous BACH1 (Homo sapiens, UniProt Q9BX63); assay: Co-immunoprecipitation of BRCA1 BRCTs and BACH1 in transfected U2OS cells; type: cell-based; conditions: U2OS cells transfected with myc-tagged BRCA1 construct; anti-myc immunoprecipitation, anti-BACH1 blot
T1 construct: endogenous in cells; host or cells: U2OS cells (BACH1 endogenous; the BRCA1 fragment transfected from pcDNA3 with FuGene6)
T1 sequence (Q9BX63 1-1249): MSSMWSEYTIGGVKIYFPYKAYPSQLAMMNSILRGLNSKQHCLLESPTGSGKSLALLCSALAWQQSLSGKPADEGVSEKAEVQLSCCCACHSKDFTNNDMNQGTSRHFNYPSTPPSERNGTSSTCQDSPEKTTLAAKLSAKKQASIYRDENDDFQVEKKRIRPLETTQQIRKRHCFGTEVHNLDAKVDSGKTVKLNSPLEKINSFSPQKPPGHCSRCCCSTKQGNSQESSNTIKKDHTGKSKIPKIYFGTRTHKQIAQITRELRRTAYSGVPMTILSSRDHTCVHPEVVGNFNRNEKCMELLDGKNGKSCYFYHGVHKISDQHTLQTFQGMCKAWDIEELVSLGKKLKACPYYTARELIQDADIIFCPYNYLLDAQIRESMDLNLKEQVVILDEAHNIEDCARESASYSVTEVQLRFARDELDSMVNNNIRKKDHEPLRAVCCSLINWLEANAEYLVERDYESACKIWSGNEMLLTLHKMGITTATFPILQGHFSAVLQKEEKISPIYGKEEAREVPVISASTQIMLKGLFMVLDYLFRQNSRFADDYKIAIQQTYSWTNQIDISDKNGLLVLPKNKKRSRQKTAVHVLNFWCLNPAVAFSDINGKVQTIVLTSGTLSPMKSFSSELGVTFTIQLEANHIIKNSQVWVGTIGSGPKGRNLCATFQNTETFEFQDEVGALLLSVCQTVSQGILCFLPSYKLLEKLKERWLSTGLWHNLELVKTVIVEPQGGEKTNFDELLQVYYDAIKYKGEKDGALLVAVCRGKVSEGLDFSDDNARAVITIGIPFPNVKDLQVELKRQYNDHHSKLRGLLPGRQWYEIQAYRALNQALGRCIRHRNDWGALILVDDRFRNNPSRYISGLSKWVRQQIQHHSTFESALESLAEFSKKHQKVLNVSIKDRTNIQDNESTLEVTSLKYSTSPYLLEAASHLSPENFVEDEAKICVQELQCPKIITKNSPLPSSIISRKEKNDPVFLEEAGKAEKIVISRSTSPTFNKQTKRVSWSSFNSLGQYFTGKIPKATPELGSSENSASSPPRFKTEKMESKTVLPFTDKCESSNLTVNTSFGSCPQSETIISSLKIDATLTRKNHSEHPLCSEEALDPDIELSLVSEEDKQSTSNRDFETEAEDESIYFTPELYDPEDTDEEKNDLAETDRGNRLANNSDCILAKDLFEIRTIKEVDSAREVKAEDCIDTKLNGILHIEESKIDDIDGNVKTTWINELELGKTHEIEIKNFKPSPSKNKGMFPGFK
Method: U2OS cells were grown to 50% confluency in 100 cm^2 dishes and transfected with the myc-tagged wild-type or mutant BRCA1 BRCT constructs (residues 1313-1863) (SEQ ID NO.: 6) using FuGene6 transfection reagent (Roche) according to manufacturer's protocol. Cells were collected 30 hrs following transfection, lysed in lysis buffer (50 mM Tris-HCl (pH7.6), 150 mM NaCl, 1.0% NP-40, 5 mM EDTA, 2 mM DTT, 8 μg/mL AEBSF, 8 μg mL^−1 aprotinin, 8 μg mL^−1 leupeptin, 2 mM Na3VO4, 10 mM NaF and the phosphatase inhibitors microcystin and okadaic acid). Lysates containing equal amounts of protein (3 mg) was incubated with 3 μL of a mouse anti-myc antibody (Cell Signaling) for 2 hr at 4° C. and then 10 μL of protein G-sepharose beads (Sigma-Aldrich) were added and samples incubated for an additional 2 hr at 4° C. Beads were washed four times with lysis buffer, bound proteins eluted in SDS-PAGE sample buffer, analysed on 6% polyacrylamide gels, transferred to PVDF membrane, and detected by blotting with rabbit anti-BACH1 antibody. A portion of the lysates were also run and blotted with the anti-BACH1 antibody and the anti-myc antibody to further ensure equal protein loading.

cholinesterases = conditions: by cholinesterases; cited from earlier work
[2] = target: T2, BACH1 phosphopeptide spot array (Homo sapiens); assay: Peptide filter array (spot blot) with GST-BRCA1 BRCTs; type: binding; conditions: 0.25 μM GST-BRCA1 BRCTs M1775R, 10 times the protein of wild type
T2 construct: made in house; host or cells: bacteria (pGEX clone, IPTG induction)
Method: An ABIMED peptide arrayer with a computer controlled Gilson diluter and liquid handling robot was used to synthesize peptides onto an amino-PEG cellulose membrane using N-α-FMOC-protected amino acids and DIC/HOBT coupling chemistry. The membranes were blocked in 5% (w/v) milk in Tris-buffered saline containing 0.1% (v/v) Tween-20 (TBS-T) for 1 hr at room temperature, incubated with 0.025 μM GST-BRCA1 BRCTs or 0.25 μM GST-BRCA1 BRCTs M1775R (residues 1633-1863) in 5% (w/v) milk, 50 mM Tris-HCl (pH 7.6), 150 mM NaCl, 2 mM EDTA, 2 mM DTT for 1 hr at room temperature and washed four times with TBS-T. The membranes were then incubated with anti-GST conjugated HRP (Amersham) in 5% (w/v) milk/TBS-T for 1 hr at room temperature, washed five times with TBS-T, and binding analysed by ECL (Perkin-Elmer).

Compound	binding to phosphorylated peptide [1]	co-localization with anti-pSer/pThr-Gln epitope antibody staining (U2OS cells)	nuclear foci formation after DNA damage (U2OS cells)	also measured
R1699Q: BRCA1 tandem BRCT domain mutant detected in breast cancer patients (SEQ ID NO.: 14)	retained a small degree of binding			binding to non-phosphorylated peptide [1]: weak phospho-independent binding; also recorded: bound to both phosphorylated and non-phosphorylated peptides
P1749R: cancer-linked BRCA1 tandem BRCT domain mutant (SEQ ID NO.: 18)	complete loss of phosphopeptide binding			
S1655A/K1702M: phosphopeptide-binding double mutant of BRCA1 tandem BRCT domains (SEQ ID NO.: 20)	completely abolished the interaction	completely failed to co-localize	only faint staining with a very fine granular pattern	nuclear foci, in words (U2OS cells; un-irradiated U2OS cells, Triton X-100 extracted prior to fixation): no foci were observed
Wild-type BRCA1 tandem BRCT domains: myc-tagged human BRCA1 BRCT construct, residues 1313-1863, with SV40 nuclear localization sequence; GST fusion of residues 1633-1863 for the filter array	clearly bind	largely co-localized	demonstrated sharp punctate nuclear foci	in vivo interaction with full-length endogenous BACH1 (endogenous BACH1): easily detected; binding to non-phosphorylated peptide [1]: not non-phosphorylated peptides
5382InsC: BRCA1 frameshift mutation that results in a stop codon at position 1829 (SEQ ID NO.: 22)	complete loss of phosphopeptide binding			
Y1853X: BRCA1 BRCT mutant which truncates the last 11 residues (SEQ ID NO.: 21)	complete loss of phosphopeptide binding			
G1738E: cancer-linked BRCA1 tandem BRCT domain mutant (SEQ ID NO.: 17)	complete loss of phosphopeptide binding			
C[C@H]1C[C@@H]2[C@H]([C@@H](O)C[C@@]3(C)[C@H]2CC[C@]3(O)C(=O)COC(=O)CCC(=O)[O-])[C@@]2(C)C=CC(=O)C=C12.[Na+] [Methylprednisolone sodium succinate ester]				hydrolysis in vivo to free methylprednisolone (cholinesterases): rapidly and extensively hydrolysed
M1775R: cancer-associated BRCA1 tandem BRCT domain mutant (SEQ ID NO.: 10)	complete loss of phosphopeptide binding	less co-localization with pSer/pThr-Gln staining foci than the wild-type protein	also formed punctate nuclear foci, although these were slightly reduced in number; also recorded: can still form nuclear foci after DNA damage	binding to BACH1 phosphopeptide in which the +3 Phe is mutated to Asp or Glu [2]: bind weakly; also recorded: binds weakly to phosphopeptides with altered motif specificity; in vivo interaction with full-length endogenous BACH1 (endogenous BACH1): completely loses the ability to interact with wild-type BACH1

Source: patent US20120295802A1, “METHODS AND COMPOSITIONS FOR CANCER TREATMENT RELATING TO BRCA1 BRCT DOMAIN RECOGNITION OF PHOSPHORYLATED BACH1” (priority 2004, published 2012)
